From US12410124B2 (priority 2019, dated 2025)
Where two headings read alike, the source gives them in different places.

Experiments:
[1] = test system: hippocampus GFAP; assay: Number of hippocampus astrocytes with GFAP positive expression in MPTP Parkinson's disease model mouse (immunohistochemistry); assay type: in vivo; settings: for Positive cell number (astrocytes with GFAP positive expression): hippocampus, MPTP Parkinson's disease model mouse, immunohistochemistry
Method: (§1) Neurotoxins can be used to establish PD animal models. Currently, 1-methyl-4-phenyl-1,2,3,6-tetrahydropyridine (MPTP) is the sole synthetic toxin which is recognized to induce PD symptoms in human and non-human primates and in mice. Using MPTP subacute modeling method, C57BL/6J male mice were intraperitoneally injected with MPTP 30 mg/kg, once a day for 5 consecutive days. The experiment animals were divided into blank control group, MPTP model group, and compound treatment group. For the […] compound treatment group, the compound was administrated by gavage for 21 consecutive days after the completion of modeling; for the MPTP model group, the normal saline was administrated by gavage for 21 consecutive days after the completion of modeling; and for the blank control group, the normal saline was first intraperitoneally injected for 5 days, and then administrated by gavage for 21 days.
(§2) Neuron-glial cell network homeostasis disorder is an important factor for the selective and progressive death of substantia nigra dopaminergic neurons in PD. In the neurotoxic effect of MPTP, the excessive activations of microglial cells and astrocytes produce a variety of inflammatory cytokines and reactive oxygen species (ROS). These inflammatory factors and ROS amplify their respective toxicities and mediate malignant feedback loop, causing a cascade inflammation response and aggravating the pathological process of PD. CD11b and GFAP are the marker proteins for activations of microglial cells and astrocytes, respectively. Therefore, the effect of the target compounds on the activations of the microglial cells and astrocytes in the substantia nigra, hippocampus, and midbrain areas of MPTP-induced PD mice can be investigated, to explore the mechanism of the anti-PD effect of the target compounds by inhibiting the neuroinflammation.
Half of experiment mice in each group were taken to separate the midbrain after perfusion and fixation. The tissue was trimmed, and the hippocampus area was taken to prepare paraffin sections. The GFAP immunohistochemical staining was performed for the statistics of the change in the number of astrocytes with GFAP positive expression. The experiment included blank control group, MPTP model group, positive control group (caffeic acid phenethyl ester, CAPE), prototype control group (styryl sulfone compounds 3B, 3C, 3D, and 3G, whose structures are shown as above), and target compound group.

[2] = test system: midbrain CD11b; assay: Midbrain CD11b protein expression in MPTP Parkinson's disease model mouse (western-blotting); assay type: in vivo; settings: for Expression (CD11b/GAPDH): midbrain, MPTP Parkinson's disease model mouse, western-blotting
Method: as §1, §2
[…] The experiment included blank control group, MPTP model group, positive control group (caffeic acid phenethyl ester, CAPE), prototype control group (styryl sulfone compounds 3B, 3C, 3D), and 3G, whose structures are shown as above), and target compound group.

[3] = test system: primary glial cells; assay: Inhibition of the NO release of primary glial cells induced by LPS; assay type: cell-based, rat; settings: for inhibition at 2 µM / inhibition at 5 µM / inhibition at 10 µM / inhibition at 20 µM: Rattus norvegicus, Glial cell, read-out: NO inhibition (%)
Description: Lipopolysaccharide (LPS) is a main component of the cell wall of Gram-negative bacteria. It is a potent inflammatory factor that can directly activate gliocytes, and the activated gliocytes secrete a large amount of inflammation mediators such as tumor necrosis factor, interleukin, and nitric oxide, thus causing inflammatory reactions and oxidative stress reactions and eventually leading to neuronal denaturation and death. In recent years, the targeted injection of LPS into rat substantia nigra or striatum to induce neuroinflammation can successfully establish PD models, which can simulate most of the clinical manifestations and pathological features of PD, and are used for the study on the neuroinflammation mechanism associated with PD. LPS-induced primary glial cell PD inflammation model is suitable for the preliminary anti-neuroinflammation screening for neuroprotective agents. LPS is used to directly activate primary glial cells to simulate the pathogenesis mechanism of neuroinflammation, and the inhibitory activity of the target compounds on the inflammatory response of primary glial cells can be investigated.
The materials were taken from the brain tissue of fetal rat, for primary glial cell culture. At 7 to 10 days of the culture, LPS was added for the activation of nitric oxide (NO) release in glial cells. When a target compound was added, the reduction value for NO content in the cell culture medium was measured, to evaluate the anti-neuroinflammation activity of the compound. The experiment included blank control group, LPS model group, positive control group (caffeic acid phenethyl ester, CAPE), prototype control group (styryl sulfone compounds 3B, 3C, 3D, and 3G, the structures of which compounds are shown as above), and target compound group.

[4] = test system: midbrain pp38; assay: Midbrain pp38 protein expression in MPTP Parkinson's disease model mouse (western-blotting); assay type: in vivo; settings: midbrain total protein, GAPDH internal reference, gavage 21 days after MPTP modeling
Method: as §1
The p38 mitogen-activated protein kinase (p38 MAPK) is expressed in both neurons and glial cells, and is the intersection point of neuron-glial cell network information regulations. The activation of p38 signaling pathway is an important initiator of neuronal degeneration, which continuously induces the apoptosis of dopaminergic neurons in multiple ways. It has become a research hotspot for the treatment of PD. Studies have shown that the protective mechanism of CAPE against the death of primary cultured cerebellar granule neurons induced by glutamate lies in inhibiting the activation of p38 phosphorylation and in turn inhibiting the activation of the caspase 3 apoptotic pathway to prevent neuronal apoptosis. Therefore, the MPTP-induced PD mouse model can be used to investigate the inhibitory effect of the target compounds on the activation of p38 phosphorylation on the overall animal level.
Half of experiment mice in each group were taken to extract the total midbrain protein, and the change in the midbrain phosphorylated p38 protein expression was determined by western-blotting using GAPDH as the internal reference. The experiment included blank control group, MPTP model group, positive control group (caffeic acid phenethyl ester, CAPE), prototype control group (styryl sulfone compounds 3B, 3C, 3D, and 3G, whose structures are shown as above), and target compound group.

[5] = test system: midbrain p-α-s; assay: Midbrain p-α-s protein expression in MPTP Parkinson's disease model mouse (western-blotting); assay type: in vivo; settings: midbrain total protein, GAPDH internal reference, gavage 21 consecutive days after MPTP modeling
Method: as §1
Alpha-synuclein is an “unfolded protein” in its natural state. It exists in a monomeric form, and participates in the physiological functions such as the release of neurotransmitters, the establishment of synaptic junctions, and the regulation of synaptic plasticity. Under pathological conditions, more than 90% of alpha-synuclein is phosphorylated at serine of position 129 and converted into phosphorylated alpha-synuclein (p-α-s), thereby forming Lewy bodies. The formation of Lewy bodies is one of the main pathological manifestations and pathological mechanisms for Parkinson's disease, and plays an important role in the formation and development of PD. The detection of the p-α-s expression in the midbrain and substantia nigra of PD model mice can evaluate the neuroprotective activity of the compound.
Half of experiment mice in each group were taken to extract the total midbrain protein, and the change in the midbrain P-α-s protein expression was determined by western-blotting using GAPDH as the internal reference. The experiment included blank control group, MPTP model group, positive control group (caffeic acid phenethyl ester, CAPE), prototype control group (styryl sulfone compounds 3B, 3C, 3D, and 3G, whose structures are shown as above), and target compound group.

Row | Compound | number of hippocampus astrocytes with GFAP positive expression compared with the styryl sulfone prototype compounds [1] | Positive cell number (astrocytes with GFAP positive expression) [1] | midbrain CD11b protein expression compared with the styryl sulfone prototype compounds [2] | Expression (CD11b/GAPDH) [2] | NO inhibitory rate compared with the styryl sulfone prototype compounds [3] | inhibition at 2 µM ([3]; 2 μM) | inhibition at 5 µM ([3]; 5 μM) | inhibition at 10 µM ([3]; 10 μM) | Expression (pp38/GAPDH) [4] | Expression (p-α-s/GAPDH) [5] | inhibition at 20 µM [3] | inhibition at 2 µM [3] | inhibition at 5 µM [3] | inhibition at 10 µM [3]
1 | CCN(CC)C(=O)Oc1ccc(/C=C/S(=O)(=O)Cc2ccc(Cl)cc2)cc1OC(=O)N(CC)CC [Compound D1-1, (E)-4-{2-[(4-chlorophenyl)mesyl]ethenyl}-1,2-phenylenebis(diethylcarbamate)] | significantly lower | 58 ± 5 | equivalent or lower | 0.33 ± 0.05 | equivalent or higher inhibitory rate | 24.8 ± 4.08% | 61.4 ± 2.77% | 84.5 ± 7.56% | 0.50 ± 0.13 | 0.42 ± 0.10 |  |  |  | 
2 | CC(C)(C)c1ccc(CS(=O)(=O)/C=C/c2ccc(O)c(O)c2)cc1 [Compound 3G, (E)-4-{2-[(4-t-butylphenyl)mesyl]ethenyl}benzene-1,2-diol, reference compound] |  | 130 ± 6 |  | 0.67 ± 0.12 |  |  | 41.2 ± 3.01% | 59.6 ± 2.44% | 0.69 ± 0.22 | 0.61 ± 0.08 | 85.8 ± 3.88% |  |  | 
3 | CCN(C)C(=O)Oc1ccc(/C=C/S(=O)(=O)CC(c2ccc(-c3ccc(OC)c(OC)c3)cc2)[N+](=O)[O-])cc1OC(=O)N(C)CC (stereo not shown) [Compound M1-1, (E)-4-{2-[2-(3′,4′-dimethoxy-[1,1′-biphenyl]-4-yl)-2-nitroethylsulfonyl]ethenyl}-1,2-phenylenebis(N-ethyl-N-methylcarbamate)] |  | 51 ± 5 |  | 0.46 ± 0.04 |  |  |  |  | 0.40 ± 0.05 | 0.27 ± 0.08 |  | 38.3 ± 3.42% | 52.9 ± 5.36% | 82.7 ± 2.47%
4 | CCN(CC)C(=O)Oc1ccc(/C=C/S(=O)(=O)Cc2ccc(C(C)(C)C)cc2)cc1OC(=O)N(CC)CC [Compound G1-1, (E)-4-{2-[(4-t-butylphenyl)mesyl]ethenyl}-1,2-phenylenebis(diethylcarbamate)] | significantly lower | 66 ± 4 | equivalent or lower | 0.50 ± 0.06 | equivalent or higher inhibitory rate | 27.2 ± 3.98% | 64.2 ± 3.25% | 85.8 ± 5.01% | 0.33 ± 0.07 | 0.34 ± 0.09 |  |  |  | 
5 | CC(=O)Oc1ccc(/C=C/S(=O)(=O)Cc2c(F)c(F)c(F)c(F)c2F)cc1OC(=O)NC(=O)c1ccc([N+](=O)[O-])c(C)c1 [Compound D5-4, (E)-2-[N-(3-methyl-4-nitrobenzoyl)carbamoyloxy]-4-{2-[(perfluorophenyl)mesyl]ethenyl}phenyl acetate] |  | 59 ± 3 |  | 1.11 ± 0.10 |  | 24.3 ± 2.82% |  | 80.7 ± 4.06% | 0.61 ± 0.07 | 0.64 ± 0.12 |  |  |  | 
6 | O=C(/C=C/c1ccc(O)c(O)c1)OCCc1ccccc1 [Positive control group, caffeic acid phenethyl ester, reference compound] |  | 86 ± 2 |  | 1.28 ± 0.10 |  | 31.5 ± 5.43% | 45.2 ± 3.85% | 77.1 ± 4.37% | 0.58 ± 0.12 | 0.54 ± 0.12 |  |  |  | 
7 | O=C(NC(=O)C(F)(F)F)Oc1ccc(/C=C/S(=O)(=O)C(F)(F)c2ccc(Oc3ccccn3)cc2)cc1OC(=O)C(F)(F)C(F)(F)F [Compound L1-4, (E)-5-{2-[(4-[pyridin-2-yl-oxy]phenyl)difluoromethylsulfonyl]ethenyl}-2-[N-(2,2,2-trifluoroacetyl)carbamoyloxy]phenyl-2,2,3,3,3-pentafluoropropionate] |  | 76 ± 4 |  | 1.09 ± 0.09 |  | 26.7 ± 6.93% | 50.9 ± 3.72% | 72.3 ± 4.8% | 0.28 ± 0.04 | 0.38 ± 0.08 |  |  |  | 
8 | O=S(=O)(/C=C/c1ccc(O)c(O)c1)CCCc1ccccc1 [Compound 3C, (E)-4-{2-[(3-phenylpropyl)sulfonyl]ethenyl}benzene-1,2-diol, reference compound] |  | 147 ± 4 |  | 1.02 ± 0.13 |  |  | 9.24 ± 4.88% | 24.6 ± 3.09% | 0.85 ± 0.22 | 0.92 ± 0.13 | 45.8 ± 5.25% |  |  | 
